Entries after “also recorded” stand apart in the source; their conditions may differ. Numbered stars: 1 amine (or outer) side, 2 acyl side, 3 side chain; on linkers, the order of the positions; unused ones are H or OH. Bridge positions count the residues as written; N and C are the ends. Square brackets hold non-standard residues; d marks the D form. Ends that are not written are not given here. Peptide text beside a SMILES is read from it. I, II: the chains in the order shown. * marks the point of attachment. ξ: configuration not given here. X2 = CN(C)c1ccc2c(c1)Oc1cc(N(C)C)ccc1C21OC(=O)c2ccc(C(=O)*)cc21; X1 = NC(=O)NC(COCCCN[*:1])(COCCCN[*:2])COCCCN[*:3]; NBD = O=[N+]([O-])c1ccc(*)c2nonc12; dDab = NCC[C@@H](N)C(=O)O; Nle = CCCC[C@H](N)C(=O)O; Dab = NCC[C@H](N)C(=O)O; AEEA = NCCOCCOCC(=O)O; ξDab = NCCC(N)C(=O)O; ξK = NCCCCC(N)C(=O)O; ξV = CC(C)C(N)C(=O)O; Ahx = NCCCCCC(=O)O; ξP = O=C(O)C1CCCN1; ξA = CC(N)C(=O)O
Tests used:
[1] = Stability in saline or ALI BALF by MALDI-TOF MS / FTMS; conditions: incubated 30 minutes
Experimental: Secondly we assessed stability of the probes in BALF from patients with ALI by FTMS and MALDI-TOF MS analysis. NBD-UBINle, NBD-UBIdend and NBD-PMX were incubated for 30 minutes with BALF (FIG. 13).
In vitro labelling was assessed on benchtop confocal in the presence of compound with bacteria and labelling was compared to NBD-UBINle which served as a reference control for bacterial labelling. […] For the ex vivo and in vivo ovine lung experiments each compound was assessed in a control lung segment (instilled with 2 ml PBS) or a bacterial segment (instilled with 2 ml of 2 optical density of bacteria). Following bacterial instillation, the compound was administered to the segment of interest and this was imaged by probe based FCFM.
Probe was added to saline or pooled BALF from patients with ALI incubated for 30 minutes. A ZipTip (C-18, 0.2 μL) with 5 μL MeCN (with 0.1% TFA as an additive) followed by 20 μL of H2O was washed. The ZipTip was loaded with the sample, washed and eluted into 5 μL of 80% aq. MeCN (with 0.1% TFA as an additive). The sample was analysed by MALDI-TOF (PerSeptive Biosystems Voyager DE™STR MALDI-TOF mass spectrometer (Applied Biosystems, Foster City, Calif.)).

elastase = elastase (Homo sapiens, UniProt P08246); conditions: ex 525 nm, Em 580 nm
[2] = target: T1, human neutrophil elastase (HNE) (Homo sapiens, UniProt P08246); test: Elastase dependent bacterial labelling in co-culture of bacteria and neutrophils; type: cell-based; conditions: for labelling of activated neutrophils: TAMRA signal; for elastase dependent bacterial labelling: bacteria with neutrophils
T1 construct: endogenous in cells; host or cells: isolated human neutrophils (co-culture with MSSA or P. aeruginosa)
T1 sequence (P08246 30-267): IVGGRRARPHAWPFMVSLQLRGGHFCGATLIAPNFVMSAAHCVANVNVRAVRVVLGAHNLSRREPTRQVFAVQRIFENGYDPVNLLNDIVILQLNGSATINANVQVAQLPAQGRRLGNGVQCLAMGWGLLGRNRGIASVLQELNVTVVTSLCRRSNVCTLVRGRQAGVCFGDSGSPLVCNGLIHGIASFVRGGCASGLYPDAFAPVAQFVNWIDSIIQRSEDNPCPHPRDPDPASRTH
Text: A first example of elastase sensitive probes (shown schematically in FIG. 16A) comprises methyl red (acting as a dark quencher) connected via the peptide sequence AAPV (SEQ. ID NO: 9). (acting as the enzyme cleavable peptide sequence of the cleavable linker) to 7-nitrobenz-2-oxa-1,3-diazole (NBD) and the ubiquicidin fragment UBI29-41 (together acting as the probe element). Accordingly, the NBD fluorescence is quenched by the methyl red and no fluorescent signal will be observed (i.e. the methyl red and NBD are acting as a FRET pair) and therefore, whether or not the probe is bound to any bacteria that may be present in the target area via UBI29-41, no signal is observed using confocal microscopy.
When the probe is in the presence of human neutrophil elastase (HNE), such as in inflamed tissue, HNE cleaves the peptide sequence of the linker, to thereby free the probe element from the methyl red quencher. Accordingly, the NBD fluorophore is no longer quenched and produces a fluorescent signal. In addition, due to the environmental sensitivity of the NBD, the signal produced is greatly amplified if the NBD is in a hydrophobic environment, such as within a cell membrane.

Question: For `CCCC[C@H](NC(=O)[C@H](CCCNC(=N)N)NC(=O)[C@H](CCCNC(=N)N)NC(=O)[C@H](CCCCN)NC(=O)[C@H](C)NC(=O)[C@H](CCCNC(=N)N)NC(=O)CNC(=O)[C@@H](NC(=O)CCCCCNc1ccc([N+](=O)[O-])c2nonc12)[C@@H](C)O)C(=O)N[C@@H](CCC(N)=O)C(=O)N[C@@H](Cc1ccc(O)cc1)C(=O)N[C@@H](CC(N)=O)C(=O)N[C@@H](CCCNC(=N)N)C(=O)N[C@@H](CCCNC(=N)N)C(N)=O` [NBD-UBINle] ({NBD-Ahx}-TGRAKRR[Nle]QYNRR-NH2; N-terminus and C-terminus assumed), which “stability in BALF from patients with ALI” value [1] is on record?
Answer: degradation; also recorded: instability in lavage fluid

Question: Which results are given for `CC(C)C[C@H]1NC(=O)[C@@H](Cc2ccccc2)NC(=O)[C@@H](CCN)NC(=O)C(NC(=O)[C@H](CCN)NC(=O)[C@@H](NC(=O)COCCOCCNC(=O)C(CCCCNc2ccc([N+](=O)[O-])c3nonc23)NC(=O)C(NC(=O)C2CCCN2C(=O)C(C)NC(=O)C(C)NC(=O)c2ccc3c(c2)C2(OC3=O)c3ccc(N(C)C)cc3Oc3cc(N(C)C)ccc32)C(C)C)[C@@H](C)O)CCNC(=O)[C@@H]([C@H](C)O)NC(=O)[C@H](CCN)NC(=O)[C@H](CCN)NC1=O` (stereo partly drawn) [TAMRA-AAPV-NBD-PMX] (X2-[ξA][ξA][ξP][ξV][ξK](NBD)[AEEA]T[Dab][ξDab][dDab][dF][dL][Dab][Dab][dT]; lactam 9-C)?
Answer: TAMRA fluorescence increase with elastase inhibitor (elastase): inhibited with an elastase inhibitor; fluorescence of TAMRA following cleavage (elastase; elastase): increase in fluorescence; bacterial labelling with unactivated neutrophils ([2]; P. aeruginosa): no labelling in the presence of unactivated neutrophils; labelling of activated neutrophils [2]: labelling of activated neutrophils in an elastase independent manner; labelling of activated neutrophils ([2]; listed as Example 2): labelled by the TAMRA moiety; elastase dependent bacterial labelling [2]: bacterial labelling in an elastase dependent manner; elastase dependent bacterial labelling ([2]; listed as Example 2): the bacteria are labelled by the probe element

Question: For “Example 1: methyl red dark quencher connected via AAPV to NBD and ubiquicidin fragment UBI29-41 (also: methyl red quencher attached, side not given here, NBD and ubiquicidin fragment UBI29-41 attached, side not given here)”, which “elastase dependent bacterial labelling” value [2] is on record?
Answer: cleaved by neutrophil derived HNE and to label bacteria

Question: What about the “bacterial labelling with elastase inhibitor” value ([2]; sivelestat added to the medium) of the same molecule?
Answer: no labelling was observed

Question: For “I: {NBD-AEEA}-TGRAKRR[Nle]QYNRR[AEEA] / II: {NBD-AEEA}-TGRAKRR[Nle]QYNRR[AEEA] / III: {NBD-AEEA}-TGRAKRR[Nle]QYNRR[AEEA] (linker I:C-II:C-III:C via X1) [NBD-UBIdend]”, which “stability in BALF from patients with ALI” value [1] is on record?
Answer: remains stable; also recorded: demonstrate stability

Reference: US10520504B2, “Fluorescent polybranched probes for detecting bacteria and/or fungi in vitro and in vivo” (priority 2014, dated 2019)
